Measured values published in patent publication US20260306464A1, “LINAPRAZAN GLURATE FOR TREATING GASTROESOPHAGEAL REFLUX DISEASE (GERD)” (Cinclus Pharma Holding AB (publ), priority 2023, published 2026).

What was measured:
[1] = system: intragastric pH; experiment: Phase I: plasma concentration of linaprazan vs. intragastric pH; assay type: in vivo, human; conditions: Phase I studies
Excerpt: The plasma concentration of linaprazan glurate is only very low and difficult to determine, but the plasma concentration of linaprazan may be determined instead.

[2] = Plasma pharmacokinetics / metabolism of linaprazan glurate; assay type: in vivo
[3] = LEED study: heartburn assessed by mRESQ-eDiary; assay type: in vivo, human; conditions: for % at most mild symptoms 24-hour days (mean) / % heartburn-free 24-hour days (mean) / Patients (%) totally free from heartburn / Patients (%) with at most mild heartburn / Patients (%) with non-mild heartburn: week 4, erosive patients all LA grades
Excerpt: Relief of reflux-related symptoms may be assessed based on the modified Reflux Symptom Reflux Questionnaire-electronic Diary (mRESQ-eDiary), which is an electronic symptom diary developed for use in partial responders to proton pump inhibitors. mRESQ-eD has three domains (i.e., heartburn, other GERD signs/symptoms and regurgitations/reflux) and eight items (Andrae et al., Clin. Transl. Gastroenterol. 2020, 11(1): e00117).
The study was a randomized, double-blind, active comparator-controlled study with a parallel group design including four arms with linaprazan glurate and one arm with lansoprazole. Pharmacokinetic (PK) blood sampling pre-dose, close before the first and the second dose administration was performed at Day 7, Day 14 and Day 28 visits days in all patients. 248 patients with erosive esophagitis due to GERD LA grade C or D and patients with erosive esophagitis due to GERD LA grade A or B with at least partial symptom response but still endoscopically unhealed after 8 weeks history of standard treatment healing course with PPI, were randomized.
Randomization to one of the treatments with linaprazan glurate 25 mg, 50 mg, 75 mg, 100 mg twice daily (BID), or lansoprazole 30 mg once daily (QD) was based on a 1:1:1:1:1 scheme. One site could not enroll more than about 20% of the overall number of patients (48 patients per site).
The duration of each patient's participation in the study, including screening, blind treatment period and open-label treatment period, was approximately 60 days. The patients were randomized for 4 weeks (28 days, −2/+5 days) of double-blind treatment and were provided with IMP for 35 days (including one additional blister pack dispensed at Visit 2/Day 0) to allow for treatment up to the visit window. […] Following the endoscopic evaluation, all patients received subsequent 4 weeks of open-label treatment with lansoprazole 30 mg QD. Repeated symptom evaluation to detect symptom pattern was assessed during this period.
Four doses of linaprazan glurate (25 mg, 50 mg, 75 mg, 100 mg, and dummies) were administered as tablets twice daily. The active comparator lansoprazole 30 mg and its dummy were administered as capsules once daily in the morning. The study drugs were taken with 100 mL of noncarbonated water at least 30 minutes prior to meals. The duration of double-blind treatment was 28 days −2/+5 days. To blind treatment, each patient received 2 tablets (containing doses of linaprazan glurate (LG) or its dummy) and one capsule (containing lansoprazole or its dummy) in the morning and 2 tablets (containing doses of linaprazan glurate (LG) or its dummy) in the evening, according to the scheme below:
A secondary objective of the study was the safety and tolerability of the four dose levels of linaprazan glurate and lansoprazole, with lansoprazole serving as the active comparator. Another secondary objective of the study was the reflux related symptom pattern during the initial 4 weeks treatment with four dose levels of linaprazan glurate and with lansoprazole, and the symptom pattern during the subsequent additional 4 weeks (weeks 5-8) open-label treatment with lansoprazole 30 mg QD. Heartburn-free 24-hour days and 24-hour days with at most mild heartburn symptoms were assessed based on modified eDiary (mRESQ-eD), including splits into day- and nighttime evaluations.
Reflux related symptoms were assessed based on a modified RESQ-eDiary (mRESQ-eD). Patients were asked to report every 12-hours, once before the morning dose and once before the evening dose of the Investigational Medicinal Product (IMP).

[4] = background statement; cited from earlier work
[5] = system: gastric hydrogen potassium pump (H+/K+ ATPase); conditions: healthy subjects; cited from earlier work

Cc1cccc(C)c1CNc1cc(C(=O)NCCOC(=O)CCCC(=O)O)cn2c(C)c(C)nc12 [linaprazan glurate, 5-{2-[({8-[(2,6-dimethylbenzyl)amino]-2,3-dimethylimidazo[1,2-a]pyridine-6-yl}carbonyl)-amino]ethoxy}-5-oxopentanoic acid]
pH control [1]: dose dependent | plasma concentration of linaprazan glurate ([2]; following absorption): very low | metabolism into linaprazan ([2]; following absorption into the blood stream): quickly metabolized into linaprazan | heartburn severity, rank among groups ([3]; FAS Erosive, first week, morning and evening, LG 75 mg BID): lowest heartburn severity | percentage of symptom free days (highest of groups) ([3]; FAS Erosive, week 1, LG 75 mg BID): 33.3% | heartburn-free days vs lansoprazole ([3]; FAS Erosive, week 1 to 4, all LG groups): more heartburn-free days | percentage of symptom free days (highest of groups) ([3]; FAS Erosive, week 2, LG 75 mg BID): 57.2% | percentage of symptom free days (highest of groups) ([3]; FAS Erosive, week 3, LG 75 mg BID): 62.6% | percentage of symptom free days (highest of groups) ([3]; FAS Erosive, week 4, LG 100 mg BID): 65.2% | percentage of heartburn-free days (highest of groups) ([3]; FAS Erosive, week 5 open-label lansoprazole, former LG 75 mg group): 72.6% | heartburn-free days vs lansoprazole ([3]; FAS Erosive, week 5 to 8 open-label (all on lansoprazole 30 mg QD), former LG groups): more heartburn-free days | percentage of heartburn-free days (highest of groups) ([3]; FAS Erosive, week 6 open-label lansoprazole, former LG 75 mg group): 73.0% | percentage of heartburn-free days (highest of groups) ([3]; FAS Erosive, week 7 open-label lansoprazole, former LG 25 mg group): 81.9% | percentage of heartburn-free days (highest of groups) ([3]; FAS Erosive, week 8 open-label lansoprazole, former LG 25 mg group): 87.6% | severity grade of heartburn, rank among groups ([3]; FAS, first week, morning and evening, LG 75 mg BID): lowest severity grade | percentage of symptom free days (highest of groups) ([3]; FAS, week 1, LG 75 mg BID): 29.2% | heartburn-free days vs lansoprazole ([3]; FAS, week 1 to 4, all LG groups): more heartburn-free days | percentage of symptom free days (highest of groups) ([3]; FAS, week 2, LG 75 mg BID): 52.9% | percentage of symptom free days (highest of groups) ([3]; FAS, week 4, LG 100 mg BID): 62.2% | percentage of heartburn-free days (highest of groups) ([3]; FAS, week 5 open-label lansoprazole, former LG 75 mg group): 69.6% | heartburn-free days vs lansoprazole ([3]; FAS, week 5 to 8 open-label (all on lansoprazole 30 mg QD), former LG groups): more heartburn-free days | percentage of heartburn-free days (highest of groups) ([3]; FAS, week 7 open-label lansoprazole, former LG 25 mg group): 79.4% | percentage of heartburn-free days (highest of groups) ([3]; FAS, week 8 open-label lansoprazole, former LG 25 mg group): 82.4% | heartburn-free days, rank among groups ([3]; LA Grade A/B, week 1 to 3, LG 75 mg BID): highest percentage of heartburn-free days | heartburn-free days, rank among groups ([3]; LA Grade A/B, week 5 open-label lansoprazole, former LG 75 mg group): highest percentage of heartburn-free days | heartburn-free days, rank among groups ([3]; LA Grade A/B, weeks 7 and 8 open-label lansoprazole, former LG 25 mg group): highest percentage of heartburn-free days | heartburn-free days, rank among groups ([3]; LA Grade C/D, week 1 and 4, LG 50 mg BID): highest percentage of heartburn-free days | heartburn-free days, rank among groups ([3]; LA Grade C/D, week 2, LG 75 mg BID): highest percentage of heartburn-free days | heartburn-free days, rank among groups ([3]; LA Grade C/D, week 3, LG 100 mg BID): highest percentage of heartburn-free days | heartburn-free days, rank among groups ([3]; LA Grade C/D, week 5 open-label lansoprazole, former LG 50 mg group): highest percentage of heartburn-free days | heartburn-free days, rank among groups ([3]; LA Grade C/D, week 6 to 8 open-label lansoprazole, former LG 75 mg group): highest percentage of heartburn-free days | % at most mild symptoms 24-hour days (mean) ([3]; LG 25 mg BID (N = 21)): 96% | % heartburn-free 24-hour days (mean) ([3]; LG 25 mg BID (N = 21)): 52% | Patients (%) totally free from heartburn ([3]; LG 25 mg BID (N = 21)): 45% | Patients (%) with at most mild heartburn ([3]; LG 25 mg BID (N = 21)): 97% | Patients (%) with non-mild heartburn ([3]; LG 25 mg BID (N = 21)): 6% | % at most mild symptoms 24-hour days (mean) ([3]; LG 50 mg BID (N = 27)): 96% | % heartburn-free 24-hour days (mean) ([3]; LG 50 mg BID (N = 27)): 56% | Patients (%) totally free from heartburn ([3]; LG 50 mg BID (N = 27)): 44% | Patients (%) with at most mild heartburn ([3]; LG 50 mg BID (N = 27)): 97% | Patients (%) with non-mild heartburn ([3]; LG 50 mg BID (N = 27)): 6% | % at most mild symptoms 24-hour days (mean) ([3]; LG 75 mg BID (N = 20)): 97% | % heartburn-free 24-hour days (mean) ([3]; LG 75 mg BID (N = 20)): 56% | Patients (%) totally free from heartburn ([3]; LG 75 mg BID (N = 20)): 50% | Patients (%) with at most mild heartburn ([3]; LG 75 mg BID (N = 20)): 87% | Patients (%) with non-mild heartburn ([3]; LG 75 mg BID (N = 20)): 13% | % at most mild symptoms 24-hour days (mean) ([3]; LG 100 mg BID (N = 19)): 100% | % heartburn-free 24-hour days (mean) ([3]; LG 100 mg BID (N = 19)): 76% | Patients (%) totally free from heartburn ([3]; LG 100 mg BID (N = 19)): 63% | Patients (%) with at most mild heartburn ([3]; LG 100 mg BID (N = 19)): 92% | Patients (%) with non-mild heartburn ([3]; LG 100 mg BID (N = 19)): 8% | plasma half-life [4]: approximately 10 hours | intragastric pH two hours after the first dose [5]: Neutral intragastric pH
